Data: patent US20050271736A1, “Pyrithione compound and microcapsule using the same” (Fuji Photo Film Co., Ltd., priority 2004, published 2005)

Assay: Measurement of photo-decomposability of the compound in ethyl acetate solution (absorbance before/after UV exposure)
Format: physicochemical
Conditions: 5.0×10^−5 mol/L in ethyl acetate
Method: The absorbance thereof was measured with an absorption photometer (Multichannel Detector PMA 11, trade name, manufactured by Hamamatsu Photonics K.K.). […] After this solution was exposed for 20 seconds by means of a fluorescent lamp of 23 watts having the central wavelength of light emission at 365 nm, which was placed at a distance of 45 mm, the absorbance thereof was measured in the same manner as the above.

- absorbance at 370 nm before exposure (1-cm quartz cell, before exposure): 0.64
- absorbance at 370 nm after exposure (exposed 20 seconds, 23 W fluorescent lamp, central wavelength 365 nm, distance 45 mm): 0.15
Compound: OCCCCCCOc1cccn(OCCCCCCO)c1=S [I-1]
